Molecular target: T1, human FXR (Homo sapiens, UniProt Q96RI1)
T1 construct: expressed in transfected cells; host or cells: HEK293 cells stably carrying a 5xGal4-response-element firefly luciferase reporter, transiently transfected with pcDNA3.1-Gal4-FXR
T1 sequence (Q96RI1 262-486 limits assumed): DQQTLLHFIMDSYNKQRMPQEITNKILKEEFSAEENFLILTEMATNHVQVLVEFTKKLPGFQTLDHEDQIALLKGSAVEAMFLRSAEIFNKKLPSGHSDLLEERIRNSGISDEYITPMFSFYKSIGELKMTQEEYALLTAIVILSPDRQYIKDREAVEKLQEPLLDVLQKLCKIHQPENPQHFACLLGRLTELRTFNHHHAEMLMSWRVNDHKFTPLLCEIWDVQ
Test: transient human FXR/Gal4-luciferase reporter assay
Assay type: cell-based
Conditions: Gal4-hFXR transfected HEK293 reporter cells; relative to 8 μM GW-4064
In short: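 Transient Gal4-hFXR LBD fusion (pcDNA3.1, Lipofectamine, overnight) expressed in a HEK293 reporter line stably bearing five Gal4 elements upstream of firefly luciferase, grown in charcoal/dextran-stripped FBS. Compound dilutions in DMSO incubated with cells overnight at 37° C, 5% CO2, before luciferase readout.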

Row | EC50 | SMILES
1 | 2.3 nM | O=C(O)c1cc(OC(F)F)c2cc(N3CCC4(C=C(c5c(-c6ccccc6C(F)(F)F)noc5C5CC5)C4)CC3)ccc2n1 [Example 58, 6-(2-(5-Cyclopropyl-3-(2-(trifluoromethyl)phenyl)isoxazol-4-yl)-7-azaspiro[3.5]non-1-en-7-yl)-4-(difluoromethoxy)quinoline-2-carboxylic acid]
2 | 185 nM | COc1cc(C(=O)O)nc2ccc(N3CCC4(C=C(c5c(-c6cnccc6C(F)(F)F)noc5C5CC5)C4)CC3)cc12 [Example 146, 6-(2-(5-Cyclopropyl-3-(4-(trifluoromethyl)pyridin-3-yl)isoxazol-4-yl)-7-azaspiro[3.5]non-1-en-7-yl)-4-methoxyquinoline-2-carboxylic acid]
3 | 43 nM | O=C(NS(=O)(=O)C1CC1)c1cc(OC(F)F)c2cc(N3CCC4(C=C(c5c(-c6cnccc6C(F)(F)F)noc5C5CC5)C4)CC3)ccc2n1 [Example 188, 6-(2-(5-Cyclopropyl-3-(4-(trifluoromethyl)pyridin-3-yl)isoxazol-4-yl)-7-azaspiro[3.5]non-1-en-7-yl)-N-(cyclopropylsulfonyl)-4-(difluoromethoxy)quinoline-2-carboxamide]
4 | 2820 nM | O=C(O)c1cc2ccc(N3CCC4(C=C(c5c(-c6c(F)cccc6F)noc5C5CC5)C4)CC3)cc2cn1 [Example 162, 7-(2-(5-Cyclopropyl-3-(2,6-difluorophenyl)isoxazol-4-yl)-7-azaspiro[3.5]non-1-en-7-yl)isoquinoline-3-carboxylic acid]
5 | 140 nM | COc1cc(C(=O)O)nc2ccc(N3CCC4(C=C(c5c(-c6ccncc6Cl)noc5C5CC5)C4)CC3)cc12 [Example 109, 6-(2-(3-(3-Chloropyridin-4-yl)-5-cyclopropylisoxazol-4-yl)-7-azaspiro[3.5]non-1-en-7-yl)-4-methoxyquinoline-2-carboxylic acid]
6 | 1300 nM | Cc1cc(C(=O)O)nc(N2CCC3(C=C(c4c(-c5ccccc5C(F)(F)F)noc4C4CC4)C3)CC2)n1 [Example 169, 2-(2-(5-Cyclopropyl-3-(2-(trifluoromethyl)phenyl)isoxazol-4-yl)-7-azaspiro[3.5]non-1-en-7-yl)-6-methylpyrimidine-4-carboxylic acid]
7 | 177 nM | O=C(O)c1cc2ccc(N3CCC4(C=C(c5c(-c6ccccc6C(F)(F)F)noc5C5CC5)C4)CC3)cc2nn1 [Example 54, 7-(2-(5-Cyclopropyl-3-(2-(trifluoromethyl)phenyl)isoxazol-4-yl)-7-azaspiro[3.5]non-1-en-7-yl)cinnoline-3-carboxylic acid]
8 | 554 nM | O=C(O)c1ccc2cc(N3CCC4(C=C(c5c(-c6cnccc6C(F)(F)F)noc5C5CC5)C4)CC3)ccc2n1 [Example 154, 6-(2-(5-Cyclopropyl-3-(4-(trifluoromethyl)pyridin-3-yl)isoxazol-4-yl)-7-azaspiro[3.5]non-1-en-7-yl)quinoline-2-carboxylic acid]
9 | 1540 nM | O=C(O)c1cc2ccc(N3CCC4(C=C(c5c(-c6cnccc6C(F)(F)F)noc5C5CC5)C4)CC3)cc2nn1 [Example 81, 7-(2-(5-Cyclopropyl-3-(4-(trifluoromethyl)pyridin-3-yl)isoxazol-4-yl)-7-azaspiro[3.5]non-1-en-7-yl)cinnoline-3-carboxylic acid]

Second part, the compound before the results:

Row | SMILES | EC50
10 | O=C(O)CNC(=O)c1ccc(N2CCC3(C=C(c4c(-c5ccccc5C(F)(F)F)noc4C4CC4)C3)CC2)nc1 [Example 31, (6-(2-(5-Cyclopropyl-3-(2-(trifluoromethyl)phenyl)isoxazol-4-yl)-7-azaspiro[3.5]non-1-en-7-yl)nicotinoyl)glycine] | 5300 nM
11 | CC(C)c1onc(-c2c(Cl)cncc2Cl)c1C1=CC2(CCN(c3nc4c(F)cc(C(=O)O)cc4s3)CC2)C1 [Example 52, 2-(2-(3-(3,5-Dichloropyridin-4-yl)-5-isopropylisoxazol-4-yl)-7-azaspiro[3.5]non-1-en-7-yl)-4-fluorobenzo[d]thiazole-6-carboxylic acid] | 58 nM
12 | O=C(O)c1cc(F)c2nc(N3CCC4(CC3)CC(c3c(-c5ccccc5C(F)(F)F)noc3C3CC3)C4)sc2c1 [Example 36, 2-(2-(5-cyclopropyl-3-(2-(trifluoromethyl)phenyl)isoxazol-4-yl)-7-azaspiro[3.5]nonan-7-yl)-4-fluorobenzo[d]thiazole-6-carboxylic acid] | 116 nM
13 | CC1(c2onc(-c3c(Cl)cncc3Cl)c2C2=CC3(CCN(c4ccc5nc(C(=O)O)cc(C(F)(F)F)c5c4)CC3)C2)CC1 [Example 94, 6-(2-(3-(3,5-Dichloropyridin-4-yl)-5-(1-methylcyclopropyl)isoxazol-4-yl)-7-azaspiro[3.5]non-1-en-7-yl)-4-(trifluoromethyl)quinoline-2-carboxylic acid] | 507 nM
14 | COc1cc(C(=O)O)cc2sc(N3CCC4(C=C(c5c(-c6ccccc6C(F)(F)F)noc5C5CC5)C4)CC3)nc12 [Example 71, 2-(2-(5-Cyclopropyl-3-(2-(trifluoromethyl)phenyl)isoxazol-4-yl)-7-azaspiro[3.5]non-1-en-7-yl)-4-methoxybenzo[d]thiazole-6-carboxylic acid] | 9.4 nM
15 | O=C(O)c1cc(F)c2nc(N3CCC4(C=C(c5c(-c6c(F)cncc6F)noc5C5CC5)C4)CC3)sc2c1 [Example 68, 2-(2-(5-Cyclopropyl-3-(3,5-difluoropyridin-4-yl)isoxazol-4-yl)-7-azaspiro[3.5]non-1-en-7-yl)-4-fluorobenzo[d]thiazole-6-carboxylic acid] | 442 nM
16 | Cn1nc(N2CCC3(C=C(c4c(-c5ccccc5OC(F)(F)F)noc4C4CC4)C3)CC2)c2ncc(C(=O)O)cc21 [Example 173, 3-(2-(5-Cyclopropyl-3-(2-(trifluoromethoxy)phenyl)isoxazol-4-yl)-7-azaspiro[3.5]non-1-en-7-yl)-1-methyl-1H-pyrazolo[4,3-b]pyridine-6-carboxylic acid] | 2790 nM
17 | Cc1cc(C(=O)O)cc2sc(N3CCC4(C=C(c5c(-c6c(Cl)cccc6Cl)noc5C5CC5)C4)CC3)nc12 [Example 45, 2-(2-(5-Cyclopropyl-3-(2,6-dichlorophenyl)isoxazol-4-yl)-7-azaspiro[3.5]non-1-en-7-yl)-4-methylbenzo[d]thiazole-6-carboxylic acid] | 11 nM
18 | Cn1nc(N2CCC3(C=C(c4c(-c5c(Cl)cccc5Cl)noc4C4CC4)C3)CC2)c2ccc(C(=O)O)cc21 [Example 133, 3-(2-(5-Cyclopropyl-3-(2,6-dichlorophenyl)isoxazol-4-yl)-7-azaspiro[3.5]non-1-en-7-yl)-1-methyl-1H-indazole-6-carboxylic acid] | 1170 nM
19 | O=C(NC1CC1)c1cc(F)c2nc(N3CCC4(C=C(c5c(-c6c(Cl)cncc6Cl)noc5C5CC5)C4)CC3)sc2c1 [Example 201, N-Cyclopropyl-2-(2-(5-cyclopropyl-3-(3,5-dichloropyridin-4-yl)isoxazol-4-yl)-7-azaspiro[3.5]non-1-en-7-yl)-4-fluorobenzo[d]thiazole-6-carboxamide] | 150 nM
20 | Cn1nc(C(=O)O)c2ccc(N3CCC4(C=C(c5c(-c6c(Cl)cccc6Cl)noc5C5CC5)C4)CC3)cc21 [Example 125, 6-(2-(5-Cyclopropyl-3-(2,6-dichlorophenyl)isoxazol-4-yl)-7-azaspiro[3.5]non-1-en-7-yl)-1-methyl-1H-indazole-3-carboxylic acid] | 96 nM
21 | O=C(O)c1cc(C(F)(F)F)c2cc(N3CCC4(C=C(c5c(C(F)F)cnn5-c5ccccc5C(F)(F)F)C4)CC3)ccc2n1 [Example 214, 6-(2-(4-(Difluoromethyl)-1-(2-(trifluoromethyl)phenyl)-1H-pyrazol-5-yl)-7-azaspiro[3.5]non-1-en-7-yl)-4-(trifluoromethyl)quinoline-2-carboxylic acid] | 26 nM
22 | Cc1cc(C(=O)O)cc2sc(N3CCC4(CC3)CC(c3c(C(F)F)cnn3-c3ccccc3C(F)(F)F)C4)nc12 [Example 220, 2-(2-(4-(Difluoromethyl)-1-(2-(trifluoromethyl)phenyl)-1H-pyrazol-5-yl)-7-azaspiro[3.5]nonan-7-yl)-4-methylbenzo[d]thiazole-6-carboxylic acid] | 378 nM
23 | Cn1cc(C(=O)O)c2ccc(N3CCC4(C=C(c5c(C(F)F)cnn5-c5ccccc5C(F)(F)F)C4)CC3)cc21 [Example 219, 6-(2-(4-(Difluoromethyl)-1-(2-(trifluoromethyl)phenyl)-1H-pyrazol-5-yl)-7-azaspiro[3.5]non-1-en-7-yl)-1-methyl-1H-indole-3-carboxylic acid] | 180 nM
24 | COc1cc(C(=O)O)nc2ccc(N3CCC4(C=C(c5c(C6CCCCC6)noc5C5CC5)C4)CC3)cc12 [Example 147, 6-(2-(3-Cyclohexyl-5-cyclopropylisoxazol-4-yl)-7-azaspiro[3.5]non-1-en-7-yl)-4-methoxyquinoline-2-carboxylic acid] | 1060 nM
25 | CC(C)Oc1cc(C(=O)O)nc2ccc(N3CCC4(C=C(c5c(-c6c(Cl)cc(F)cc6Cl)noc5C5CC5)C4)CC3)cc12 [Example 110, 6-(2-(5-Cyclopropyl-3-(2,6-dichloro-4-fluorophenyl)isoxazol-4-yl)-7-azaspiro[3.5]non-1-en-7-yl)-4-isopropoxyquinoline-2-carboxylic acid] | 37 nM
26 | O=C(O)c1cc(F)c2nc(N3CCC4(C=C(c5c(C(F)F)cnn5-c5ccccc5C(F)(F)F)C4)CC3)sc2c1 [Example 213, 2-(2-(4-(Difluoromethyl)-1-(2-(trifluoromethyl)phenyl)-1H-pyrazol-5-yl)-7-azaspiro[3.5]non-1-en-7-yl)-4-fluorobenzo[d]thiazole-6-carboxylic acid] | 48 nM
27 | O=C(O)c1ccc2nc(N3CCC4(C=C(c5c(-c6c(Cl)cccc6Cl)noc5C5CC5)C4)CC3)ccc2c1 [Example 122, 2-(2-(5-Cyclopropyl-3-(2,6-dichlorophenyl)isoxazol-4-yl)-7-azaspiro[3.5]non-1-en-7-yl)quinoline-6-carboxylic acid] | 40 nM
